# In patent publication US6403645B2, “Antidepressant effect of norepinephrine uptake 2 inhibitors and combined medications including them” (President and Fellows of Harvard College, priority 2000, dated 2002):
# Assay: Urinary levels of norepinephrine and normetanephrine in depressed patients treated with desipramine
# Type: in vivo
# Description: (Plasma levels of normetanephrine were not measured in these studies.)
# [1] = by the fourth week of treatment
structure (smiles),measurement,setting,value
CNCCCN1c2ccccc2CCc2ccccc21 [desipramine],urinary levels of norepinephrine,after one week of treatment,small decreases
same,urinary levels of normetanephrine,after one week of treatment,small decreases
same,urinary levels of norepinephrine,[1],statistically significant increases
same,urinary levels of normetanephrine,[1],statistically significant increases
